The results in this text go back to US5023265A, “Substituted 1-H-pyrrolopyridine-3-carboxamides” (Schering Corporation, priority 1990, dated 1991).

The subject of assay [1] is Adjuvant-Induced Arthritis in Rats. The assay can be described thus: Adjuvant-Induced Arthritis in Rats (AAR). The format is in vivo. The following applies: Rattus norvegicus, 504 h; dosed 1 hour prior to adjuvant, then 21 consecutive days.
For assay [2], the system named is Reversed Passive Arthus Reaction (RPAR) in the rat paw. Kind of assay: RPAR-Paw Assay (Reversed Passive Arthus Reaction, rat paw). The assay is classed as in vivo, male Wistar/Lewis inbred albino rats. The conditions noted are these: oral, paw volume 2 hours postchallenge, read-out: RPAR-Paw % Inhib. On the procedure: In order to determine the antiinflammatory activity by the reverse passive Arthus response, male Wistar/Lewis inbred albino rats weighing 180-200 g were used. The rats were housed three animals per cage and fasted 24 hours prior to and during the study. Water was allowed ad libitum.
All reagents and drugs were prepared prior to the study. Crystallized and lyophilized bovine serum albumin (BSA) was solubilized in cold, sterile, pyrogen-free saline (PFS), 10 mg/mL. Lyophylized antibovine serum albumin (anti-BSA), the IgG fraction, was suspended or solubilized in an aqueous solution of methylcellulose (MC) with a homogenizer prior to administration.
One hour prior to sensitization with BSA, groups of animals (minimum six per group) were given drug in MC by gavage according to body weight (1.0 mL/100 g). Controls were given MC alone, and a drug standard, indomethacin, was usually included in each assay. Drugs were prepared so as to provide a dose for a 200 g animal, which was equivalent to the milligram per kilogram dose for the experiment. Each rat received an oral dose in a volume of approximately 2.0 mL. One hour after dosing, the animals were lightly anesthetized with ether and "sensitized" by injection into the penile vein with 0.2 mL of PFS containing 1 mg of BSA. One hour later, the animals were "challenged" in the right hind paw with subplantar injections of 0.2 mL PFS pyrogen-free salin containing 0.1 mg of anti-BSA bovine serum albumin. Immediately after the subplantar injections, the right hand paw was immersed (to the lateral maleolus) into the mercury well of a plethysmograph. The volume of mercury displaced was converted to weight and recorded. This value was considered to be the control reading for the animal. Paw volumes were also recorded with a plethysmograph during the development of the inflammation at 2 hours postchallenge.
Results were expressed by the change in paw volume from the control reading for each animal to that recorded 2 hours postchallenge. All drug-treated groups were compared to the MC control for significant differences by using analysis of variance (Duncan and Dunnetts). Differences from control in drug-treated groups were expressed as percent inhibition.
In order to determine the dose required to inhibit the inflammatory response by 50% (ED50), a minimum of three and a maximum of five points were included in the assay. The ED50 and the relative potency to a drug standard, indomethacin, were determined by linear regression analysis. (J. Med. Chem., 1984, Vol. 27, No. 1, 27). Results for representative compounds of the invention are shown in Columns 3 and 4 of Table 1 below.

Assay [3] concerns Reversed Passive Arthus Reaction (RPAR) in the rat pleural cavity. The assay can be described thus: RPAR-Pleural Cavity Assay. The assay is classed as in vivo, male rats. The following applies: for inhibition in vivo at 25 mg/kg / inhibition in vivo at 50 mg/kg: Rattus norvegicus, 4 hours. How it is done: RPAR-Pleural Cavity Assay
Groups of 4 male rats were injected in the penile vein with antigen (1 mg BSA in 0.2 mL of saline per rat) and 0.5 hour later injected in the pleural cavity with antibody (1.0 mg antibody protein in the IgG fraction of rabbit anti-BSA in 0.2 mL). […] After 4 hours the animals were killed with CO2, and the pleural cavities were opened and the exudate drained into a graduated conical glass centrifuge tube containing indomethacin (1.8 μg) and nordihydroguaiaretic acid (NDGA) (15 μg) to block ex vivo metabolite synthesis. The volume of the exudate was measured. The cavity was then washed out with saline-EDTA to achieve a final volume of 5.0 mL. The number of cells were determined in a Coulter Counter. The cells were spun-down (1000×g) and the exudate supernatant was added to 4 volumes of 95% ethanol and samples were kept on ice for 30 minutes. After removal of the protein precipitate (2,500×g) the ethanol extract of the exudate was dried under N2 and then stored at -20° C. For radioimmunoassay (RIA) analysis the samples were redissolved in water to a volume of 1 mL per rat. Utilizing internally spiked samples, recovery of TXB2 (tritiated thromboxane B2) and LTE4 (tritiated leukotriene-E4) from exudates was determined to be 84±2% (SEM) and 89±2% (N=4), respectively. Exudate samples were directly assayed in duplicate with the commercial ^3 H-TXB2 RIA kit from New England Nuclear and the ^3 H-LTC4 /D4 /E4 kit from Amersham. The assay was validated using reversed-phase HPLC analysis of LTs in the standard procedure described by M. W. Musch, R. W. Bryant, C. Coscollaela, R. F. Myers and M. I. Siegel, Prostaglandins, Vol. 29, pp 405-430 (1985). Samples of ethanol exudate extract were "spiked" with ^3 H-LTs to follow HPLC purification and recovery.

The next assay relates to cyclooxygenase. Kind of assay: Rat CO/LO Inhibition: cyclooxygenase metabolite HHT in rat pleural neutrophils. The format is cell-based, male Wistar-Lewis rats. The following applies: 5 M × 10^-5, rat neutrophils. On the procedure:
Male Wistar-Lewis rats were injected iv with 5 mg of BSA in 0.2 mL of pyrogen-free saline followed by an intrapleural injection of 500 μg of the IgG fraction of rabbit anti-BSA in 0.2 mL of pyrogen-free saline, all under light anesthesia. After 4 hours the pleural cavity exudate, consisting of 85-95% neutrophils, was removed. Neutrophils were isolated from the pleural exudates by centrifugation at 4° C. for 10 minutes at 200 g. The cell pellet was briefly resuspended in 17 mM Tris-HCl buffer, pH 7.2, containing 0.75% NH4 Cl in order to lyse red cells, followed by centrifugation at 4° C. for 5 minutes at 200 g. The pelleted neutrophils were rewashed in 50 mM Tris-HCl, pH 7.4, containing 100 mM NaCl and 1 mM CaCl2, for a final cell count of approximately 5×10^6 intact neutrophils/0.1 mL of suspension.
Arachidonic acid metabolism via cyclooxygenase and 5-lipoxygenase was determined by preincubating the above cell suspension with the test compound for 4 minutes at room temperature and then adding 0.1 mL of the preincubated cells to assay tubes. The final assay mixture (0.1 mL) contained 40 μM [1-^14 C]arachidonic acid, 10 μM calcium A23187 ionophore and 0.1% BRIJ®56 detergent. After 1 minutes at 37° C., assays were terminated by the addition of 2.4 mL of a CHCl3 /CH3 OH (1:1 v/v) mixture and 0.9 mL of 0.1% HCOOH. The suspension was vortexed, immediately cooled on ice, and centrifuged and the organic layer withdrawn. The extract was evaporated and resuspended in 0.1 mL of CHCl3 /CH3 OH (1:2, v/v) for spotting on silica gel TLC plates (without gypsum). Development was with petroleum ether/diethylether/acetic acid (40:60:1, v/v/v). Products were located by autoradiography and the appropriate regions scraped and counted in a liquid scintillation counter. The 5-lipoxygenase metabolite 5-hydroxy-6,8,11,14-eicosatetraenoic acid (5-HETE) and the cyclooxygenase metabolite 12-hydroxy-[…] (HHT) were identified by cochromatography with authentic standards on TLC plates. Results are reported as percent inhibition of cyclooxygenase and lipoxygenase metabolite formation. (Myers, R. F.; Siegel, M. I., Biochem. Biophys. Res. Commun., 1983, 112, 586.) Results with representative compounds of the invention are shown in Columns 10, 11 and 12 of Table 1 below.

[4] abbreviates: read-out: RPAR-Pleural Cavity % Inhibition Cells.
Setting [5] is: exudate volume, read-out: RPAR-Pleural Cavity % Inhibition Fluid.
Where [6] appears, read: 50 mg/kg, read-out: RPAR-Pleural Cavity % Inhibition Cells.
[7] abbreviates: 50 mg/kg, exudate volume, read-out: RPAR-Pleural Cavity % Inhibition Fluid.

The structures appear in SMILES notation. Like-named read-outs stand apart in the source and are kept apart here.

For the molecule `O=C(Nc1ccccc1)c1c(O)n(-c2ccccc2)c2ncccc12`, the ED50 (usually the midpoint of the dose-response relation) in assay [1] was 9 mg/kg. The values for the inhibition in vivo at 25 mg/kg in assay [2], in assay [3] (setting [4]) and in assay [3] (setting [5]) were 60%, 56% and 49%, respectively. Moreover, in assay [3] (50 mg/kg, LTE4 in exudate by RIA), the “RPAR-Pleural Cavity % Inhibition LTE4” value is reported as 59%. Also, the “RPAR-Pleural Cavity % Inhibition TXB2” value in assay [3] (50 mg/kg, TXB2 in exudate by RIA) amounted to 100%. Moreover, the inhibition in vivo at 50 mg/kg in assay [3] (setting [6]) came out at 61%; in assay [3] (setting [7]), 27%. The “Cyclooxygenese/lipoxygenese % Inhib. HHT” value in the assay with cyclooxygenase is recorded as 93%.
As for `O=C(Nc1ccccc1)c1c(O)n(-c2cccc(C(F)(F)F)c2)c2ncccc12`, in assay [2], the inhibition in vivo at 50 mg/kg turned out to be 60%. In addition, the inhibition in vivo at 25 mg/kg in assay [3] (setting [4]) and in assay [3] (setting [5]) was 0% in each case. Besides, the “Cyclooxygenese/lipoxygenese % Inhib. HHT” value in the assay on cyclooxygenase amounted to 56%.
Turning to `CC(C)(C)n1c(O)c(C(=O)Nc2ccccc2)c2cccnc21`, the inhibition in vivo at 25 mg/kg in assay [2] turned out to be 36%; in assay [3] (setting [4]), 41%; in assay [3] (setting [5]) it was 26%.
For `O=C(Nc1ccccn1)c1c(O)n(-c2ccccc2)c2ncccc12`, the inhibition in vivo at 50 mg/kg in assay [2] came to 26%. Also, the “Cyclooxygenese/lipoxygenese % Inhib. HHT” value in the assay with cyclooxygenase is 78%.
In the case of `O=C(Nc1ccccc1)c1c(O)n(-c2ccc(Cl)cc2)c2ncccc12`, in assay [2], the inhibition in vivo at 50 mg/kg was 56%. For the same molecule, the inhibition in vivo at 25 mg/kg in assay [3] (setting [4]) came out at 51%; in assay [3] (setting [5]), 18%. For the same molecule, in the assay with cyclooxygenase, the “Cyclooxygenese/lipoxygenese % Inhib. HHT” value came to 96%.
With `O=C(Nc1cccc(C(F)(F)F)c1)c1c(O)n(-c2ccccc2)c2ncccc12`, the inhibition in vivo at 25 mg/kg is 41% in assay [2], 22% in assay [3] (setting [4]) and 0% in assay [3] (setting [5]). For the same molecule, the “Cyclooxygenese/lipoxygenese % Inhib. HHT” value in the assay with cyclooxygenase is recorded as 60%.
Turning to `O=C(Nc1ccc(F)cc1F)c1c(O)n(-c2ccccc2)c2ncccc12`, the inhibition in vivo at 50 mg/kg in assay [2] is 33%. Also, in the assay on cyclooxygenase, the “Cyclooxygenese/lipoxygenese % Inhib. HHT” value stood at 96%.
For the molecule `O=C(Nc1ccccc1)c1c(O)n(Cc2ccccc2)c2ncccc12`, in assay [1], the ED50 was 33 mg/kg. Moreover, the inhibition in vivo at 25 mg/kg in assay [2] came to 42%; in assay [3] (setting [4]), 36%; in assay [3] (setting [5]) it was 76%. Moreover, the “Cyclooxygenese/lipoxygenese % Inhib. HHT” value in the assay with cyclooxygenase is recorded as 34%.
For the molecule `Cc1cc(NC(=O)c2c(O)n(-c3ccccc3)c3ncccc23)no1`, the results for the inhibition in vivo at 25 mg/kg in assay [2], in assay [3] (setting [4]) and in assay [3] (setting [5]) were 10%, 0% and 0%, respectively. In the assay on cyclooxygenase, the “Cyclooxygenese/lipoxygenese % Inhib. HHT” value is listed as 45%.
`O=C(Nc1ccccc1)c1c(O)[nH]c2ncccc12`: in assay [2], the inhibition in vivo at 25 mg/kg was determined as 22%. For the same molecule, in the assay on cyclooxygenase, the “Cyclooxygenese/lipoxygenese % Inhib. HHT” value worked out at 0%.
`COc1ccc(NC(=O)c2c(O)n(-c3ccccc3)c3ncccc23)cc1`: the inhibition in vivo at 25 mg/kg in assay [2] was 42%; in assay [3] (setting [4]) it was 28%; in assay [3] (setting [5]), 27%.
On to `CCCCNC(=O)c1c(O)n(-c2ccccc2)c2ncccc12`, for which the inhibition in vivo at 25 mg/kg was 29% in assay [2], 19% in assay [3] (setting [4]) and 0% in assay [3] (setting [5]). Also, the “Cyclooxygenese/lipoxygenese % Inhib. HHT” value with cyclooxygenase came out at 44%.
The corresponding values for `O=C(NCc1ccccc1)c1c(O)n(-c2ccccc2)c2ncccc12` are 0%, 0%, 0% and 34%.
As for `O=C(Nc1ccccc1)c1c(O)n(Cc2ccc(F)cc2)c2ncccc12`, the inhibition in vivo at 25 mg/kg in assay [2] amounted to 32%; in assay [3] (setting [4]), 30%; in assay [3] (setting [5]), 46%. Further, the “Cyclooxygenese/lipoxygenese % Inhib. HHT” value in the assay on cyclooxygenase is 57%.
For the molecule `CC(C)n1c(O)c(C(=O)Nc2ccccc2)c2cccnc21`, the inhibition in vivo at 25 mg/kg was found to be 34% in assay [3] (setting [4]) and 44% in assay [3] (setting [5]). In addition, the results for the inhibition in vivo at 50 mg/kg in assay [3] (setting [6]) and in assay [3] (setting [7]) were 65% and 57%, respectively.
Turning to `O=C(O)c1cc(NC(=O)c2c(O)n(-c3ccccc3)c3ncccc23)ccc1O`, the results for the inhibition in vivo at 25 mg/kg in assay [2], in assay [3] (setting [4]) and in assay [3] (setting [5]) were 4%, 0% and 0%, respectively.
In the case of `CC(C)(C)NC(=O)c1c(O)n(-c2ccccc2)c2ncccc12`, the inhibition in vivo at 25 mg/kg was found to be 49% in assay [2], 66% in assay [3] (setting [4]) and 23% in assay [3] (setting [5]).
For the molecule `CC(C)c1ccc(-n2c(O)c(C(=O)Nc3ccccc3)c3cccnc32)cc1`, the figures for the inhibition in vivo at 25 mg/kg in assay [2], in assay [3] (setting [4]) and in assay [3] (setting [5]) were 34%, 9% and 8%, respectively.
Turning to `Cn1c(O)c(C(=O)Nc2ccccc2)c2cccnc21`, the values for the inhibition in vivo at 25 mg/kg in assay [3] (setting [4]) and in assay [3] (setting [5]) were 45% and 5%, respectively. The “Cyclooxygenese/lipoxygenese % Inhib. HHT” value with cyclooxygenase is given as 0%.
